{"source": "patent US20050255493A1", "about": "“Molecular targeting of the IGF-1 receptor” (priority 2002, published 2005)", "key": {"MDA-MB-231 cells": {"test_system": "MDA-MB-231 cells", "assay": "Clonogenic survival and post-irradiation survival (SF2) of transfected MDA-MB-231 cells", "assay_type": "cell-based, human", "conditions": "MDA-MB-231, 100 nM, unirradiated", "procedure": "FIG. 7 A) MDA-MB-231 cells transfected with 100 nM RNA duplexes were serum-starved overnight and treated with 50 nM IGF-I for 30 min. […] Results represent mean±sem of colony counts in triplicate dishes. Similar results were obtained in two further clonogenic assays. • C) Clonogenic survival of transfected MDA-MB-231 cells that were unirradiated or irradiated at 2Gy. The fraction surviving 2Gy irradiation (SF2) is shown as mean±sem of three independent assays.\nThe effect of transfection with 100 nM ASO4 or siRNA duplexes R4 and R5, equivalent to strongly and weakly hybridizing ASOs respectively, on colony forming efficiency and post-irradiation survival was also evaluated. […] This in turn illustrates the utility of hybridisation to the scanning ASO array in the selection of siRNA reagents, since relative hybridisation to the array is found to be predictive of activity in RNA interference and biological efficacy."}, "IGF1R [1]": {"test_system": "IGF1R", "assay": "IGF1R levels by immunoblotting in human tumour cell lines transfected with RNAi duplexes", "assay_type": "cell-based", "conditions": "human ovarian (UC101) and prostate (DU145) cancer cells, 10 nM", "procedure": "(§1) The human and murine cell lines used in this study were cultured in RPMI 1640 plus 10% FCS at 37° C. in a humidified atmosphere of 5% CO2. The cultures were negative when tested for Mycoplasma infection. Cultures were passaged the day before transfection to achieve 30-50% confluence the following day. Initial transfections of ASOs used 1-2.5 μg/ml Cytofectin (Glen Research, Sterling, Va.), according to the manufacturer's instructions. Latterly Oligofectamine (Life Sciences) has been used for all ASO and RNAi transfections. The method was as described (see manufacturer's instructions and www.dharmacon.com) with minor modifications. For transfection of monolayers seeded in 6 well plates, 5 μl phosphorothioate oligonucleotide or RNA duplex at 100× final concentration were mixed with 2501 serum-free Optimem (Gibco-BRL). In a separate tube 2 μl Oligofectamine was mixed with 68 μl Optimem. After 10 min incubation at room temperature the contents of the two tubes were mixed and incubated for a further 25 min at room temperature. Monolayers were washed with 1-2 ml Optimem. To the cells were added 175 μl Optimem followed by the 325 μl complexes. Volumes were scaled up by factors of 2.22 or 6.05 for transfection in 60 mm or 100 mm dishes respectively. Cultures were incubated at 37° C. for 4 hr, and then 50 μl FCS and 3.5 ml RPMI plus 5% FCS were added to each well. After 48 hr incubation effects on IGF1R and IR expression were determined by immunoblotting. Some transfected cultures were serum-starved overnight, divided into two aliquots and treated with 10 nM Long R3-IGF-I (GroPep, Adelaide) or diluent for 30 min at 37° C. prior to lysis.\n(§2) IGF1R expression was assessed by immunoblotting as previously described (Macaulay et al 2001). After washing in ice-cold PBS, cells were lysed in 50 mM Hepes pH 7.5, 100 mM NaCl, 10 mM EDTA, 1% Triton-X-100, 4 mM sodium pyrophosphate, 2 mM sodium orthovanadate, 10 mM sodium fluoride, 1 mM PMSF, 2 μg/ml each leupeptin and aprotinin. Lysates were centrifuged for 15 minutes at 14,000 g, the protein concentration of supernatants was measured using BCA assay reagent (Pierce), and equivalent amounts of protein were separated on 7.5% SDS-PAGE gels and transferred to nitrocellulose. Target protein levels were assessed using antibodies to the β-subunit of the IGF1R or IR (Santa Cruz), phospho-Ser 473 Akt or total Akt (Cell Signalling, New England Biolabs) or β-tubulin (Sigma). Activated IGF1R was detected by immunoprecipitation for phosphotyrosine (P-Tyr-100, Cell Signaling Technology). Primary antibodies were detected with HRP-conjugated secondary antibodies (Dako), and ECL Plus (Amersham Pharmacia). […]\nTumour cells were transfected with 10 nM duplexes and IGF1R levels were measured after 48 hr. After correction for loading differences IGF1R levels in cells transfected with RNAi were expressed as % of levels in cells transfected with equivalent inverted control duplex."}, "[2]": {"test_system": "UC101 human ovarian cancer cells", "assay": "Tumorigenicity of UC101 ovarian cancer cells transfected with siRNA (xenografts)", "assay_type": "in vivo, female athymic (nu/nu mice)", "conditions": "UC101 cells transfected with 200 nM siRNA, nu/nu mice", "procedure": "UC101 ovarian cancer cells were transfected with 200 nM siRNA, mixed with irradiated NIH-3T3 cells and inoculated into the flanks of female athymic (nu/nu mice).\nTumorigenicity testing was conducted using UC101 human ovarian cancer cells transfected with 200 nM siRNA. After 48 hr the cells were inoculated into the flanks of female athymic (nu/nu mice), using 5×10^6 tumour cells mixed with 5×10^6 irradiated NIH-3T3 cells per mouse. Tumours were measured and volumes calculated as described (Macaulay et al., Oncogene 20: 2029-40, 2001). All procedures were performed in accordance with the Home Office Scientific Procedures Act 1986, and with the approval of the Animal Ethics Committee of Cancer Research UK."}, "IGF1R [3]": {"test_system": "IGF1R", "assay": "IGF1R expression in UC101 ovarian cancer cells treated with 18mer ASOs", "assay_type": "cell-based, human", "procedure": "as §1, with “Volumes were scaled up by factors of 2.22 or 6.05 for transfection in 60 mm or 100 mm dishes respectively. Cultures were incubated at 37° C. for 4 hr, and then 50 μl FCS and 3.5 ml RPMI plus 5% FCS were added to each well.” left out, “Some transfected cultures were serum-starved overnight, divided into two aliquots and treated with 10 nM Long R3-IGF-I (GroPep, Adelaide) or diluent for 30 min at 37° C. prior to lysis.” left out\nas §2, with “After washing in ice-cold PBS, cells were lysed in 50 mM Hepes pH 7.5, 100 mM NaCl, 10 mM EDTA, 1% Triton-X-100, 4 mM sodium pyrophosphate, 2 mM sodium orthovanadate, 10 mM sodium fluoride, 1 mM PMSF, 2 μg/ml each leupeptin and aprotinin.” left out"}, "IR": {"test_system": "IR", "assay": "IR level by immunoblotting in transfected MDA-231 cells", "assay_type": "cell-based, human", "procedure": "as §1\n(§3) IGF1R expression was assessed by immunoblotting as previously described (Macaulay et al 2001). After washing in ice-cold PBS, cells were lysed in 50 mM Hepes pH 7.5, 100 mM NaCl, 10 mM EDTA, 1% Triton-X-100, 4 mM sodium pyrophosphate, 2 mM sodium orthovanadate, 10 mM sodium fluoride, 1 mM PMSF, 2 μg/ml each leupeptin and aprotinin. Lysates were centrifuged for 15 minutes at 14,000 g, the protein concentration of supernatants was measured using BCA assay reagent (Pierce), and equivalent amounts of protein were separated on 7.5% SDS-PAGE gels and transferred to nitrocellulose. Target protein levels were assessed using antibodies to the β-subunit of the IGF1R or IR (Santa Cruz), phospho-Ser 473 Akt or total Akt (Cell Signalling, New England Biolabs) or β-tubulin (Sigma). Activated IGF1R was detected by immunoprecipitation for phosphotyrosine (P-Tyr-100, Cell Signaling Technology). Primary antibodies were detected with HRP-conjugated secondary antibodies (Dako), and ECL Plus (Amersham Pharmacia).\n(§4) The ASOs and RNAi duplexes were transfected into MDA-231 cells (human ER negative breast cancer) using Cytofectin or Oligofectamine, as described above. After 48 hr the cells were lysed, and IGF1R and IR levels were measured by immunoblotting. The intensity of the autoradiographic bands was quantified by densitometry, and IGF1R (or IR) levels were corrected for loading differences. The specific IGF1R or IR results are presented as % IGF1R (or IR) level of that in cells transfected with the same concentration of an appropriate control. This was a scrambled control oligonucleotide for ASOs, and an inverted RNA duplex for RNAi."}, "IGF1R mRNA": {"test_system": "IGF1R mRNA", "assay": "Oligonucleotide scanning array hybridisation with labelled transcript", "assay_type": "binding, human", "conditions": "for Rel hyb intensity: relative to the most strongly hybridising sequence on the array; for Hyb intensity: scanning array probed with labelled IGF1R mRNA", "procedure": "Scanning arrays complementary to the region of the IGF1R mRNA from position 537-685 were prepared using the standard techniques described in Southern E. M. et al., Nucleic Acids Res., 1994, 22(8): 1368-1373; and Sohail, M. and Southern, E. M. “Using oligonucleotide scanning arrays to find effective antisense reagents”, Methods in Molecular Biology, vol. 170: DNA Arrays: Methods and Protocols, Ed J. B. Rampal, Humana Press Inc., Totowa, N.J.\nThe scanning arrays comprise sets of oligonucleotides of various lengths. A series of oligonucleotides, complementary to the target mRNA, is made by sequential coupling of nucleotides to a solid surface. The DNA synthesis reagents are applied to a confined area on the surface of the solid support using a mask. The mask is shifted along the surface after each round of coupling, resulting in a series of oligonucleotides each complementary to a region of the target sequence.\n• 2. Remove 1 μL for quantitation (see below). • 3. Remove unincorporated label by Sephadex® G25 column chromatography (see Note 11). • 4. Save 1 μL of the purified transcript for quantitation (see below). • 5. Check the integrity of the transcript by denaturing polyacrylamide gel electrophoresis (10). • 6. Add 10 μL of the scintillation fluid to the samples saved in Steps 2 and 4. • 7. Mix by vortexing and count the samples in a scintillation counter for 1 min. • 8. Calculate the percent incorporation: [formula] • 9. Calculate the amount of RNA made: [formula] Hybridisation to Arrays Made on Polypropylene • 1. Place the array in the hybridisation tube, coiling it in a spiral. • 2. Dilute the radiolabelled transcript in an appropriate volume (10-20 mL depending upon the size of the array and the hybridisation tube) of hybridisation buffer. The mix should cover the array along the length of the tube. • 3. Place items 1 and 2 in the oven at desired temperature for 30 min. Also put approximately 100 mL of the hybridisation buffer in the oven: this is to be used to wash the array at the end of hybridisation. • 4. Pour the hybridisation mix into the tube containing the array and hybridise for 3-4 h. • 5. Remove the hybridisation mix. Briefly wash the array with the hybridisation buffer from Step 3, air dry, cover with cling film and expose to a storage phosphor screen for 16-20 h (see Note 12). • 6. Scan the screen on PhosphorImager or STORM and analyse the image using xvseq (see below). Hybridisation to Arrays Made on Glass • 1. Clean the non-array glass plate with acetone and ethanol to ensure it is grease-free and siliconise it by treatment with dimethyl dichlorosilane solution and place it in lidded box. Also place moist paper towel in the box. • 2. Dilute the radiolabelled transcript in an appropriate volume of the hybridisation buffer (for example, for an array of 250 mm×50 mm use 500-750 μL). • 3. Place items 1 and 2 in an incubator at desired temprature for 30 min. Also put approximately 100 mL of the hybridisation buffer in the oven: this is to be used to wash the array at the end of hybridisation. • 4. Using a micropipette, pipette the hybridisation mix in a line evenly along the length of the non-array glass plate, avoiding formation of air bubbles. • 5. Starting at one end, carefully place the scanning array (face down) on top of the hybridisation mix. The mix will spread out and form a thin film between the two plates. Incubate for 3-4 h. • 6. Separate the plates from each other and wash the array plate with hybridisation buffer to remove unbound mix. Drain the plate, air dry, cover with cling film and expose to a storage phosphor screen for 16-20 h. • 7. Scan the screen on PhosphorImager or STORM and analyse the image using xvseq (see below). Alternative Hybridisation Protocol for Glass or Polypropylene • 1. Assemble with clips the array plate (or polypropylene array pasted with PhotoMount™ on a glass plate) and the non-array plate, using rubber tubing as spacers on two sides. • 2. […]"}, "IGF1R [4]": {"test_system": "IGF1R", "assay": "IGF1R level by immunoblotting in transfected MDA-231 cells", "assay_type": "cell-based, human", "conditions": "MDA-231 cells, 300 nM ASO, 48 hr, vs scrambled control", "procedure": "as §1, §3, §4"}}, "data": [{"substance": "R5: RNAi duplex UGAGUACAACUACCGCUGCTT / TTACUCAUGUUGAUGGCGACG, SEQ ID NO:32 (UGAGUACAACUACCGCUGCNN; second strand not cited, chemistry not fully specified)", "values": [{"measurement": "Clonogenic survival", "setting": "MDA-MB-231 cells", "value": "inhibited survival"}, {"measurement": "IGF1R downregulation, R4 compared with R5", "setting": "IGF1R [1]", "value": "induced IGF1R downregulation"}, {"measurement": "Tumour development", "setting": "[2]", "value": "rapidly growing tumours"}]}, {"substance": "TSS ASO: ASO TCCTCCGGAGCCAGACTT, SEQ ID NO:21, complementary to human IGF1R translation initiation site, identical to that described by Baserga et al. (DNA, all phosphorothioate, methylation of C not given here) [reference compound]", "values": [{"measurement": "IGF1R expression, % of levels in cells treated with scrambled control", "setting": "IGF1R [3]", "value": "33% of levels in cells treated with"}, {"measurement": "IR downregulation", "setting": "IR; TSS ASO at 300 nM", "value": "detectable reduction in IR levels"}]}, {"substance": "ASO6: phosphorothioate antisense oligonucleotide CTTATTCCCCACAATGTA, SEQ ID NO:17; poorly hybridising comparison (DNA, all phosphorothioate, methylation of C not given here)", "values": [{"measurement": "Hybridisation to IGF1R mRNA on scanning array", "setting": "IGF1R mRNA; 37° C. (and 23° C.)", "value": "hybridises poorly"}, {"measurement": "Rel hyb intensity", "setting": "IGF1R mRNA", "value": 0.01}, {"measurement": "Hyb intensity", "setting": "IGF1R mRNA", "value": 560}, {"measurement": "IGF1R expression, % of levels in cells treated with scrambled control", "setting": "IGF1R [3]", "value": "98% of levels in cells treated with Scr6"}, {"measurement": "IR Protein Level (% control)", "setting": "IR; 300 nM ASO, 48 hr, vs scrambled control", "value": 100, "unit": "% control"}, {"measurement": "IGF1R Protein Level (% control)", "setting": "IGF1R [4]", "value": "˜150 % control"}]}, {"substance": "ASO2/18mer: phosphorothioate antisense oligonucleotide GGTCTTCTCACACATCGG, SEQ ID NO:6 (DNA, all phosphorothioate, methylation of C not given here)", "values": [{"measurement": "Rel hyb intensity", "setting": "IGF1R mRNA", "value": 1.00}, {"measurement": "Hyb intensity", "setting": "IGF1R mRNA", "value": "56,026"}, {"measurement": "IGF1R expression, % of levels in cells treated with scrambled control", "setting": "IGF1R [3]", "value": "39% of levels in cells treated with Scr2"}]}]}
